{"source": "paper PMC8185074", "about": "“Anchor extension: a structure-guided approach to design cyclic peptides targeting enzyme active sites” (Nature Communications, 2021)", "format_in_all_cases": "biochemical", "key": {"[1]": {"biological_target": "T1, HDAC3 (Homo sapiens, UniProt O15379)", "T1 construct": "purchased Reaction Biology Corporation (assay run by the CRO)", "T1 sequence (O15379 whole entry)": "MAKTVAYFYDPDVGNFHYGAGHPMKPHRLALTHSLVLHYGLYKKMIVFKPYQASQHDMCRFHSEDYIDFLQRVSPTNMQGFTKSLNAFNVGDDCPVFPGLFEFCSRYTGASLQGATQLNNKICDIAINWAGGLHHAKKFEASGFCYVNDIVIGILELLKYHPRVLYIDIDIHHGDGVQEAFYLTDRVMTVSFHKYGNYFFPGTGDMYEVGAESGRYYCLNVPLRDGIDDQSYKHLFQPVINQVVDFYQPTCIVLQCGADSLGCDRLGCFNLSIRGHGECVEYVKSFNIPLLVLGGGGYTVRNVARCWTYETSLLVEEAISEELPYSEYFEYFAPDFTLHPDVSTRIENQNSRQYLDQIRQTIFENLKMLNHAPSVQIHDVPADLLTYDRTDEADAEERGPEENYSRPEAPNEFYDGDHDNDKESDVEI", "T1 sequence (Q9Y618 395-489 partner limits assumed)": "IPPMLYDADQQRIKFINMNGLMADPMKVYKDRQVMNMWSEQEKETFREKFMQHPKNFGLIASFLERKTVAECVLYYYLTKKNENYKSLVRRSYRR", "experiment": "HDAC3 inhibition, full IC50 measurement (Reaction Biology; fluorogenic p53 peptide RHKK(Ac)AMC)", "summary_of_the_method": "(§1)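 Test peptides were dispensed acoustically with enzyme in 50 mM Tris-HCl pH 8.0, 137 mM NaCl, 2.7 mM KCl, 1 mM MgCl2, 1 mg/ml BSA and 1% DMSO. After adding 50 μM RHKK(Ac)AMC, reactions ran 1 h at 30 °C, then developer was added.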"}, "[2]": {"biological_target": "T2, HDAC6 (Homo sapiens, UniProt Q9UBN7)", "T2 construct": "purchased Reaction Biology Corporation (assay run by the CRO)", "T2 sequence (Q9UBN7 1-1215)": "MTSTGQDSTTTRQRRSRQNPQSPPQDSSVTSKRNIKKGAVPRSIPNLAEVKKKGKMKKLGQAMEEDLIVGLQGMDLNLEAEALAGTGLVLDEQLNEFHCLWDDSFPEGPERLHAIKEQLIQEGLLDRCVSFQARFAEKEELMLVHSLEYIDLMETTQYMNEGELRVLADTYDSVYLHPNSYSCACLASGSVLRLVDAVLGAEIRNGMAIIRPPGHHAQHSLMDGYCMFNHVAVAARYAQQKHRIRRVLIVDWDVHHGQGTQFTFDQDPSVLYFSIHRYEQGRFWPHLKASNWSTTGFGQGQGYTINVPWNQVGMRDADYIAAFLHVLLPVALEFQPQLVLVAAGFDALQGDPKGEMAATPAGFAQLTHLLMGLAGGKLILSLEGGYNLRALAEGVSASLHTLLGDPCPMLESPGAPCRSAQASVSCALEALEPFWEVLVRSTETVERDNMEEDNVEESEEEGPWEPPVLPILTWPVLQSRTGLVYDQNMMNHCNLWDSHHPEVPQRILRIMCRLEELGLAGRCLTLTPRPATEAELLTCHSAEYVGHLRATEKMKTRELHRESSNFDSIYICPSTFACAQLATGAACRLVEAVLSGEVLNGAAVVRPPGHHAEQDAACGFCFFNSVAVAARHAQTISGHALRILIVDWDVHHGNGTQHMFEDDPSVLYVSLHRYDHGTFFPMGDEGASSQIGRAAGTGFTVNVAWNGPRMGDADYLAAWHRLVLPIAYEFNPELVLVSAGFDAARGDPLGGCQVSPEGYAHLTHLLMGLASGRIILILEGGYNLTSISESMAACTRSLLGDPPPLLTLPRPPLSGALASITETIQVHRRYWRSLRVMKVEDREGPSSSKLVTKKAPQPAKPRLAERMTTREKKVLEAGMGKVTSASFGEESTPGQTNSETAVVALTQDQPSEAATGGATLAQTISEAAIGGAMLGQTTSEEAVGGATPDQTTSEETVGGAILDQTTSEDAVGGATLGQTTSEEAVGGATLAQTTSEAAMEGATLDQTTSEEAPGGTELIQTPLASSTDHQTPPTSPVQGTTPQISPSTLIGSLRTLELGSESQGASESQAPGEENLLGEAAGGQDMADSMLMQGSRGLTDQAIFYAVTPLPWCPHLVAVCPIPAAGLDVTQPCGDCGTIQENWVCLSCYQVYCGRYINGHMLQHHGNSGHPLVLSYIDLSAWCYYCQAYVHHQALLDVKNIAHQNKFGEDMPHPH", "experiment": "HDAC6 inhibition, full IC50 measurement (Reaction Biology; fluorogenic p53 peptide RHKK(Ac)AMC)", "summary_of_the_method": "as §1"}, "[3]": {"biological_target": "T3, HDAC2 (Homo sapiens, UniProt Q92769)", "T3 construct": "purchased Reaction Biology Corporation (assay run by the CRO)", "T3 sequence (Q92769 whole entry)": "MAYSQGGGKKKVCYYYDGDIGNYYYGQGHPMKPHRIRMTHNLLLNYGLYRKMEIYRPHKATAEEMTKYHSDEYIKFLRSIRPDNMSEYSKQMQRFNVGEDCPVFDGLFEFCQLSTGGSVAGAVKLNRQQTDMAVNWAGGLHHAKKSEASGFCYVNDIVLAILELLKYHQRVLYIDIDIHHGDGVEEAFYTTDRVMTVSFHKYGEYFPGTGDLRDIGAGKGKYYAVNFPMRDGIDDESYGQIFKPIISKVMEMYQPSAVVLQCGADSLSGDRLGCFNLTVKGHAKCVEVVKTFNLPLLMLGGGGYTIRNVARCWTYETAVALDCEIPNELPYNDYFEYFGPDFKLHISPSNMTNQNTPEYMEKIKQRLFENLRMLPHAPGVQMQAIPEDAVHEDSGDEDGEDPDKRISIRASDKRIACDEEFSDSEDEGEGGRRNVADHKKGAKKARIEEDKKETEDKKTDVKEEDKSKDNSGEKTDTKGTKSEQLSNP", "experiment": "Initial HDAC2 IC50 estimate (BPS Biosciences HDAC fluorogenic assay kit)", "summary_of_the_method": "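Inhibition measured by kit-based fluorogenic HDAC activity assays, with each point in duplicate or triplicate. Values come from a full 1 µM–100 pM series (1:10 steps) or are range estimates from just 20 nM and 200 nM.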"}}, "note": "Where two headings read alike, the source gives them in different places. Peptide text beside a SMILES is read from it.", "data": [{"molecule": "N=C(N)NCCC[C@@H]1NC(=O)[C@@H](CCCNC(=N)N)NC(=O)[C@H]2CCCN2C(=O)[C@@H](Cc2c[nH]cn2)NC(=O)[C@H](Cc2ccc(O)cc2)NC(=O)[C@H](CCCCCS)NC(=O)[C@H](CCc2ccccc2)NC(=O)[C@@H](CO)NC(=O)[C@H](CC(=O)O)NC1=O", "note": "[des3.3.1, SHA-Tyr-dHis-dPro-dArg-Arg-Asp-dSer-C27] (HELM PEPTIDE1{[O=C([C@H](CCCCCS)N[*:1])[*:2]].Y.[dH].[dP].[dR].R.D.[dS].[O=C([C@H](CCc1ccccc1)N[*:1])[*:2]]}$PEPTIDE1,PEPTIDE1,1:R1-9:R2$$$V2.0)", "values": [{"measurement": "HDAC3 activity raw data (signal)", "setting": "[1]; Conc. 1.00E-05 M, t1", "value": -3010}, {"measurement": "HDAC3 activity raw data (signal)", "setting": "[1]; Conc. 1.00E-05 M, t2", "value": -2975}, {"measurement": "HDAC3 activity raw data (signal)", "setting": "[1]; Conc. 1.11E-06 M, t1", "value": -3312}, {"measurement": "HDAC3 activity raw data (signal)", "setting": "[1]; Conc. 1.11E-06 M, t2", "value": 10427}, {"measurement": "HDAC3 activity raw data (signal)", "setting": "[1]; Conc. 1.23E-07 M, t1", "value": 21751}, {"measurement": "HDAC3 activity raw data (signal)", "setting": "[1]; Conc. 1.23E-07 M, t2", "value": 40450}, {"measurement": "HDAC3 activity raw data (signal)", "setting": "[1]; Conc. 1.37E-08 M, t1", "value": 79797}, {"measurement": "HDAC3 activity raw data (signal)", "setting": "[1]; Conc. 1.37E-08 M, t2", "value": 111435}, {"measurement": "HDAC3 activity raw data (signal)", "setting": "[1]; Conc. 1.52E-09 M, t1", "value": 143913}, {"measurement": "HDAC3 activity raw data (signal)", "setting": "[1]; Conc. 1.52E-09 M, t2", "value": 186935}, {"measurement": "HDAC3 activity raw data (signal)", "setting": "[1]; Conc. 3.33E-06 M, t1", "value": -4595}, {"measurement": "HDAC3 activity raw data (signal)", "setting": "[1]; Conc. 3.33E-06 M, t2", "value": 4931}, {"measurement": "HDAC3 activity raw data (signal)", "setting": "[1]; Conc. 3.70E-07 M, t1", "value": 9528}, {"measurement": "HDAC3 activity raw data (signal)", "setting": "[1]; Conc. 3.70E-07 M, t2", "value": 17560}, {"measurement": "HDAC3 activity raw data (signal)", "setting": "[1]; Conc. 4.12E-08 M, t1", "value": 66179}, {"measurement": "HDAC3 activity raw data (signal)", "setting": "[1]; Conc. 4.12E-08 M, t2", "value": 74103}, {"measurement": "HDAC3 activity raw data (signal)", "setting": "[1]; Conc. 4.57E-09 M, t1", "value": 114353}, {"measurement": "HDAC3 activity raw data (signal)", "setting": "[1]; Conc. 4.57E-09 M, t2", "value": 144441}, {"measurement": "HDAC3 activity raw data (signal)", "setting": "[1]; Conc. 5.08E-10 M, t1", "value": 223427}, {"measurement": "HDAC3 activity raw data (signal)", "setting": "[1]; Conc. 5.08E-10 M, t2", "value": 239829}, {"measurement": "HDAC6 activity raw data (signal)", "setting": "[2]; Conc. 1.00E-05 M, t1", "value": 557}, {"measurement": "HDAC6 activity raw data (signal)", "setting": "[2]; Conc. 1.00E-05 M, t2", "value": -139}, {"measurement": "HDAC6 activity raw data (signal)", "setting": "[2]; Conc. 1.11E-06 M, t1", "value": 10535}, {"measurement": "HDAC6 activity raw data (signal)", "setting": "[2]; Conc. 1.11E-06 M, t2", "value": 12694}, {"measurement": "HDAC6 activity raw data (signal)", "setting": "[2]; Conc. 1.23E-07 M, t1", "value": 31520}, {"measurement": "HDAC6 activity raw data (signal)", "setting": "[2]; Conc. 1.23E-07 M, t2", "value": 38979}, {"measurement": "HDAC6 activity raw data (signal)", "setting": "[2]; Conc. 1.37E-08 M, t1", "value": 82998}, {"measurement": "HDAC6 activity raw data (signal)", "setting": "[2]; Conc. 1.37E-08 M, t2", "value": 93685}, {"measurement": "HDAC6 activity raw data (signal)", "setting": "[2]; Conc. 1.52E-09 M, t1", "value": 115704}, {"measurement": "HDAC6 activity raw data (signal)", "setting": "[2]; Conc. 1.52E-09 M, t2", "value": 134545}, {"measurement": "HDAC6 activity raw data (signal)", "setting": "[2]; Conc. 3.33E-06 M, t1", "value": 4544}, {"measurement": "HDAC6 activity raw data (signal)", "setting": "[2]; Conc. 3.33E-06 M, t2", "value": 5827}, {"measurement": "HDAC6 activity raw data (signal)", "setting": "[2]; Conc. 3.70E-07 M, t1", "value": 20428}, {"measurement": "HDAC6 activity raw data (signal)", "setting": "[2]; Conc. 3.70E-07 M, t2", "value": 19976}, {"measurement": "HDAC6 activity raw data (signal)", "setting": "[2]; Conc. 4.12E-08 M, t1", "value": 50772}, {"measurement": "HDAC6 activity raw data (signal)", "setting": "[2]; Conc. 4.12E-08 M, t2", "value": 68185}, {"measurement": "HDAC6 activity raw data (signal)", "setting": "[2]; Conc. 4.57E-09 M, t1", "value": 115536}, {"measurement": "HDAC6 activity raw data (signal)", "setting": "[2]; Conc. 4.57E-09 M, t2", "value": 120171}, {"measurement": "HDAC6 activity raw data (signal)", "setting": "[2]; Conc. 5.08E-10 M, t1", "value": 151999}, {"measurement": "HDAC6 activity raw data (signal)", "setting": "[2]; Conc. 5.08E-10 M, t2", "value": 154121}, {"measurement": "IC50", "setting": "[3]; Supp. Table 4, rough estimates, for promising hits full measurements, read-out: HDAC2 activity (initial values for HDAC2 IC50)", "value": 25, "unit": "nM"}, {"measurement": "IC50", "setting": "[3]; Supplementary Dataset 2, read-out: HDAC2 activity (initial activity)", "value": 20, "unit": "nM"}]}]}
